The Deep4Chem optical property database

Experiment: solvent given as SMILES

Cc1nc2c(c[n+]1C)CN1C(=O)N([C@H]3O[C@@H](CO)[C@H](O)[C@@H]3O)C=CC1=N2
fluorescence lifetime (in CC#N): 3.61 ns | fluorescence lifetime (in CC(C)=O): 3.12 ns | fluorescence lifetime (in CCCO): 0.39 ns | fluorescence lifetime (in CCO): 0.47 ns | fluorescence lifetime (in CO): 0.55 ns | fluorescence lifetime (in O): 1.58 ns | fluorescence lifetime (in [2H]OC): 0.58 ns | fluorescence lifetime (in [2H]OCC): 0.5 ns | fluorescence lifetime (in [2H]O[2H]): 1.86 ns

CC1=CC(C)=[N+]2C1=C(c1ccccc1)c1c(C)c(-c3cccs3)c(C)n1[B-]2(F)F
fluorescence lifetime (in Cc1ccccc1): 3.2 ns

CC1=[N+]2C(=C(c3ccc(C#N)cc3)c3ccc(C)n3[B-]2(F)F)C=C1
fluorescence lifetime (in Cc1ccccc1): 0.55 ns

CN(C)c1ccc(/C=C/C=C2\CC/C(=C\C=C\c3ccc(N(C)C)cc3)C2=O)cc1
fluorescence lifetime (in C1CCCCC1): 0.48 ns | fluorescence lifetime (in CC#N): 0.49 ns | fluorescence lifetime (in CC(C)=O): 0.8 ns | fluorescence lifetime (in CC(C)O): 0.56 ns | fluorescence lifetime (in CCCCCC): 0.86 ns | fluorescence lifetime (in CCCCO): 0.37 ns | fluorescence lifetime (in CCCO): 0.19 ns | fluorescence lifetime (in CCO): 0.24 ns | fluorescence lifetime (in CCOC(C)=O): 0.69 ns | fluorescence lifetime (in CCOCC): 0.76 ns | fluorescence lifetime (in CN(C)C=O): 0.67 ns | fluorescence lifetime (in CO): 0.21 ns | fluorescence lifetime (in CS(C)=O): 0.58 ns | fluorescence lifetime (in Cc1ccccc1): 0.86 ns | fluorescence lifetime (in ClC(Cl)(Cl)Cl): 0.76 ns | fluorescence lifetime (in ClCCl): 1.08 ns | fluorescence lifetime (in OCC(F)(F)F): 0.14 ns | fluorescence lifetime (in S=C=S): 0.83 ns | fluorescence lifetime (in c1ccccc1): 0.81 ns | fluorescence lifetime (in c1ccncc1): 1.17 ns

CCN(CC)c1ccc(-c2nc3cc(C(NC(=O)OC(C)(C)C)C(=O)OC)ccc3o2)c(O)c1 (configuration not stated)
fluorescence lifetime (in CC1CCCCC1): 0.22 ns | fluorescence lifetime (in CC#N): 0.67 ns | fluorescence lifetime (in CO): 0.25 ns

c1ccc([C@]23CC[C@H](CC2)N=N3)cc1
fluorescence lifetime (in CC#N): 2.5 ns

N#Cc1cc(-c2ccc(F)cc2)cnc1O
fluorescence lifetime (in CC#N): 5.22 ns | fluorescence lifetime (in CO): 5.23 ns | fluorescence lifetime (in O): 5.38 ns

CCCCCCN1C(=O)c2cccc3c(-c4cccs4)ccc(c23)C1=O
fluorescence lifetime (in ClC(Cl)Cl): 1.92 ns

CC(C)(C)c1ccc(N(c2ccccc2)c2ccc3ccc4c(N(c5ccccc5)c5ccc(C(C)(C)C)cc5)ccc5ccc2c3c54)cc1
fluorescence lifetime (in ClCCl): 6.2 ns

C(=C\c1c2ccccc2cc2ccccc12)/c1cnc2ccccc2c1
fluorescence lifetime (in CC1CCCCC1): 3.2 ns | fluorescence lifetime (in CC#N): 3 ns

O=C(O)CCCCCn1c2ccccc2c(=O)c2cc(Br)ccc21
fluorescence lifetime (in O): 8.6 ns

CCN1C(=CC2=C([O-])C(=CC3=[N+](CC)c4ccccc4C3(C)C)C2=O)C(C)(C)c2ccccc21
fluorescence lifetime (in CO): 0.2 ns | fluorescence lifetime (in ClC(Cl)Cl): 1.52 ns

CC(C)(C)c1ccc(C2=C(c3ccc(-n4c5ccccc5c5ccccc54)cc3)S(=O)(=O)c3c2sc(-c2ccc(-n4c5ccccc5c5ccccc54)cc2)c3-c2ccc(C(C)(C)C)cc2)cc1
fluorescence lifetime (in C1CCOC1): 0.47 ns

COC(=O)C[C@H](Cc1c[nH]c2ccccc12)NC(=O)[C@H](CC(=O)N[C@@H](CC1=CCc2ccccc21)C(=O)OC)NC(=O)[C@H](Cc1c[nH]c2ccccc12)NC(=O)OC(C)(C)C
fluorescence lifetime (in CC#N): 2.67 ns | fluorescence lifetime (in CCOC(C)=O): 2.08 ns | fluorescence lifetime (in CO): 1.86 ns

CN(C)c1ccc2cc3c(cc2c1)OCCN=C3
fluorescence lifetime (in CS(C)=O): 4.4 ns

COc1ccc2c3ccc(OC)cc3c3cc4c(C)cc(=O)oc4cc3c2c1
fluorescence lifetime (in ClC(Cl)Cl): 6.2 ns

COc1ccc2c(c1)CCC1=C(C#Cc3ccc(Cl)cc3)O[B-](F)(F)[O+]=C12
fluorescence lifetime (in ClCCl): 2.53 ns

COc1ccc2c(c1)c(=O)c1ccccc1n2CCCCCC(=O)O
fluorescence lifetime (in O): 17 ns

CCN(CC)c1ccc2cc(/C=C/C(=C(C#N)C#N)c3ccc(N(c4ccccc4)c4ccccc4)cc3)c(=O)oc2c1
fluorescence lifetime (in CC(C)=O): 0.59 ns | fluorescence lifetime (in CCOC(C)=O): 1.31 ns | fluorescence lifetime (in CN(C)C=O): 0.33 ns | fluorescence lifetime (in CS(C)=O): 0.33 ns | fluorescence lifetime (in Cc1ccccc1): 0.84 ns | fluorescence lifetime (in ClCCl): 2.88 ns

COc1c2ccccc2c(OC)c2c1c1ccc(C)cc1n2C
fluorescence lifetime (in C1CCCCC1): 20.6 ns | fluorescence lifetime (in CC#N): 25.8 ns | fluorescence lifetime (in CO): 22.9 ns | fluorescence lifetime (in ClCCl): 22 ns

Cc1ccc(C2=C3C=CC(c4ccccc4)=[N+]3[B-](F)(F)n3c2ccc3-c2ccccc2)cc1
fluorescence lifetime (in C1CCCCC1): 1.56 ns | fluorescence lifetime (in C1CCOC1): 1.4 ns | fluorescence lifetime (in C1COCCO1): 1.59 ns | fluorescence lifetime (in CCOC(C)=O): 1.37 ns | fluorescence lifetime (in CO): 1.22 ns | fluorescence lifetime (in Cc1ccccc1): 2.17 ns | fluorescence lifetime (in ClC(Cl)Cl): 1.97 ns

COc1ccc(C2=C3C(C)=CC(C)=[N+]3[B-](F)(F)n3c(/C=C/c4ccc(N(C)C)cc4)cc(C)c32)cc1
fluorescence lifetime (in C1CCCCC1): 3.5 ns | fluorescence lifetime (in C1CCOC1): 3 ns | fluorescence lifetime (in C1COCCO1): 3.43 ns | fluorescence lifetime (in CC#N): 1.2 ns | fluorescence lifetime (in CC(C)=O): 2.23 ns | fluorescence lifetime (in CCC#N): 1.84 ns | fluorescence lifetime (in CCCC#N): 2.26 ns | fluorescence lifetime (in CCCCO): 2.45 ns | fluorescence lifetime (in CCOC(C)=O): 3.31 ns | fluorescence lifetime (in CCOCC): 3.74 ns | fluorescence lifetime (in CO): 0.85 ns | fluorescence lifetime (in Cc1ccccc1): 3.25 ns | fluorescence lifetime (in ClC(Cl)Cl): 3.47 ns

COc1ccc(-c2c3ccccc3c(C#Cc3ccccc3)c3cc4cc(C)sc4cc23)cc1
fluorescence lifetime (in ClCCl): 7.1 ns

c1ccc2c(c1)ncc1ccc3cnc4ccccc4c3c12
fluorescence lifetime (in CC#N): 6.3 ns

N#Cc1c(-n2c3ccc(-c4ccccc4)cc3c3cc(-c4ccccc4)ccc32)c(-n2c3ccc(-c4ccccc4)cc3c3cc(-c4ccccc4)ccc32)c(C#N)c(-n2c3ccc(-c4ccccc4)cc3c3cc(-c4ccccc4)ccc32)c1-n1c2ccc(-c3ccccc3)cc2c2cc(-c3ccccc3)ccc21
fluorescence lifetime (in Cc1ccccc1): 9 ns

Cc1cc(C)c(-c2nnc(-c3ccc(-n4c5ccccc5c5ccccc54)cc3)o2)c(C)c1
fluorescence lifetime (in CCO): 2.1 ns

CC(C)c1cccc(C(C)C)c1N1C(=O)c2cccc3c(Oc4ccccc4)ccc(c23)C1=O
fluorescence lifetime (in ClCCl): 4.67 ns

COc1ccc2cc(/C=C/c3ccccc3)c(=O)oc2c1
fluorescence lifetime (in CC#N): 2.75 ns

CCOc1ccc2c(-c3nc(-c4ccccc4F)no3)cc(=O)oc2c1
fluorescence lifetime (in CCO): 6.6 ns | fluorescence lifetime (in ClC(Cl)Cl): 5.1 ns

CCCc1c(C(=O)c2ccc3c4c(cccc24)-c2cccc4c2C3CC=C4)c2ccc3cccc4c5cccc6ccc1c(c65)c2c34 (configuration not stated)
fluorescence lifetime (in ClCCl): 1.04 ns

COc1ncccc1B(O)O
fluorescence lifetime (in C1COCCO1): 0.415 ns | fluorescence lifetime (in CC(C)O): 0.399 ns | fluorescence lifetime (in CCCCCC): 0.211 ns | fluorescence lifetime (in CCCCCCC): 0.253 ns | fluorescence lifetime (in CCCCCCCC): 0.299 ns | fluorescence lifetime (in CCCCCCCCO): 0.463 ns | fluorescence lifetime (in CCO): 0.499 ns | fluorescence lifetime (in CO): 1.57 ns

O=C([O-])c1ccccc1-c1c2ccc(=O)cc-2oc2cc([O-])ccc12
fluorescence lifetime (in CC(C)O): 4.36 ns | fluorescence lifetime (in CCCCCCCCO): 4.52 ns | fluorescence lifetime (in CCCCCCO): 4.48 ns | fluorescence lifetime (in CCCCO): 4.4 ns | fluorescence lifetime (in CCCO): 4.42 ns | fluorescence lifetime (in CCO): 4.25 ns | fluorescence lifetime (in CO): 4.28 ns | fluorescence lifetime (in O): 4.16 ns | fluorescence lifetime (in [2H]O[2H]): 4.36 ns

COc1ccccc1C1=[N+]2C(=C(c3ccccc3)c3c4ccccc4c(-c4ccccc4OC)n3[B-]2(F)F)c2ccccc21
fluorescence lifetime (in ClCCl): 5.8 ns

CCN(CC)c1ccc2cc3c(cc2c1)C1(c2ccccc2Oc2ccccc21)c1cc2cc(N(CC)CC)ccc2cc1C3=O
fluorescence lifetime (in CC#N): 2.5 ns

CN(C)c1ccc(C2=Cc3c4ccccc4c4ccccc4[n+]3[B-](F)(F)O2)cc1
fluorescence lifetime (in ClC(Cl)Cl): 2.6 ns

c1ccc(N(c2ccccc2)c2ccc3c4cccc5c(N(c6ccccc6)c6ccccc6)ccc(c6cccc2c63)c54)cc1
fluorescence lifetime (in ClCCl): 4.71 ns

CC1(C)c2ccccc2N(c2ccc(-c3cnc(C#N)nc3)cc2)c2ccccc21
fluorescence lifetime (in N#Cc1ccc2c(c1)c1ccccc1n2-c1cccc(-n2c3ccccc3c3ccccc32)c1): 15.7 ns

COC(=O)c1cc2c(cc3ccc4cccc5ccc2c3c45)[nH]1
fluorescence lifetime (in C1CCOC1): 2.29 ns

CCC1=C(C)C2=Cc3c(I)c(I)c(I)n3[B-](F)(F)[N+]2=C1C
fluorescence lifetime (in C1CCCCC1): 0.358 ns | fluorescence lifetime (in CC(C)=O): 0.198 ns | fluorescence lifetime (in CCO): 0.244 ns | fluorescence lifetime (in CCOC(C)=O): 0.236 ns | fluorescence lifetime (in CO): 0.22 ns | fluorescence lifetime (in OCC(F)(F)F): 0.18 ns

C[NH+](C)c1c2ccccc2cc2ccccc12
fluorescence lifetime (in O): 17.3 ns
